Here are results for 8 compounds from US20210301261A1, “HUMAN LIVER MICROPHYSIOLOGY PLATFORM AND SELF ASSEMBLY LIVER ACINUS MODEL AND METHODS OF THEIR USE” (priority 2014, published 2021).

Entries after “also recorded” stand apart in the source; their conditions may differ. Read-outs that look alike come from different tables or passages of the source.

The conditions of series [1]: in vivo; cited from earlier work.
Series [2] has as its system hepatocytes in SALA model. The experiment in a line: Oxidative stress response in biosensor transduced hepatocytes in SALA model. Type of series: cell-based, human. As to conditions: 0 to 15 hr treatment period. The source says: Image processing at each time point provides kinetic physiological responses is provided in Panel D.
Series [3] relates to liver. As to conditions: cited from earlier work.
Series [4] has as its system liver. As to conditions: cited from earlier work; for liver injury incidents/million prescriptions: human; for Human/Animal Toxicology (findings in words, wrapped cells): in vivo.
In another series the test system is SALA model cells. Conditions: human. An excerpt:
(§1) Efflux media was collected for measurements of organ model health using assays for lactate dehydrogenase (LDH) release, and albumin, and urea synthesis. LDH is released from cells under conditions of cytotoxic damage. Albumin and urea are secreted from functional hepatocytes. The media efflux was also used to monitor the presence of drug and metabolic products for PK. When compounds are included in the microfluidic media, hepatocytes are exposed to the compound and often biotransform them to a chemically distinct product. Mass spectrometry is a specific and sensitive method to observe these changes. Typically, ca. 15 microliters of media is collected for each biochemical and mass spec measurement (flow rate=5 microliters per hour.)
Troglitazone (28 or 180 μM), or caffeine (600 μM, negative control) was introduced into the microfluidic device for 0-28 days.

For series [5], the system named is hepatocyte sentinel cells. Kind of series: Statistical validation of biosensors in hepatocyte sentinel cells in microplates. Format: cell-based, human. Conditions: 50 μM. An excerpt:
A panel of biosensors was delivered through lentiviral transduction in multiple fluorescent protein colors initially validated in microplates for an acute response. An SSMD level of ≥2 is considered a statistically valid response.

In series [6] the test system is hepatocytes in SALA model (bile canalicular efflux, BSEP). Kind of series: Bile efflux (CMFDA fluorescence) in SALA model. Type of series: cell-based, human. As to conditions: 50 μM.
For another series, the system named is LX-2 stellate cells. Conditions: 30 nM.
The test system of series [7] is hepatocytes in SALA model (Cyp3A4 signature metabolite). The experiment in a line: LC-MS of efflux media: metabolic clearance and metabolite production in SALA model. As to conditions: 5 μM testosterone in influx media; efflux collected over 24 hr at 5 μl/hr; day 10.
Excerpt: as §1

For series [8], the system named is hepatocytes in SALA model. Kind of series: Hepatocyte area measured in real-time with cytochrome C biosensor in SALA model. Format: cell-based, human. An excerpt: (§2) Correlation of propidium iodide (PI) uptake with cell area of hepatocytes is illustrated in FIG. 11. The cytochrome C biosensor is used to measure hepatocyte area in order to perform real-time measurements of apoptosis.

Series [9] has as its system hepatocytes in SALA model. The experiment in a line: Propidium iodide uptake of hepatocytes in SALA model. Format: cell-based, human. As to conditions: 200 μM trovafloxacin co-treated with 1 ug/ml LPS, compared to vehicle.
Excerpt: as §2

Another series concerns U937 cells. The experiment in a line: TNF-alpha release from LPS activated U937 cells. Type of series: cell-based, human.

Excerpt for LX-2 stellate cells: Day 21 Immunofluorescence images of a SALA liver vehicle treated 21 days, fixed, and reacted against α-Human Collagen type ½ is provided in panel C. […] Nuclei are false colored blue in all images.

As a reminder, the Cmax is the peak of the concentration-time curve. With `CCc1nn(CCCN2CCN(c3cccc(Cl)c3)CC2)c(=O)n1CCOc1ccccc1` [Nefazodone], the Cmax in [1] was 900 nM. In [2], the ROS generation entry is given as “increase of ROS generation”, the mitochondrial function entry was “decrease in mitochondrial function” and the “oxidative stress in hepatocytes” value is reported as “induces oxidative stress”. For the same compound, the “MOT (wrapped cells)” value in the series with liver [3] is “Mitochondrial and ROS and Bile Efflux”. For the same compound, in the series with liver [4], the “liver injury incidents/million prescriptions” value is given as 105 incidents/million incidents/million prescriptions and the “Human/Animal Toxicology (findings in words, wrapped cells)” value (from here on “Human/Animal Toxicology”) is listed as “Acute hepatitis; also recorded: Centrilobular (zone 3); also recorded: Cholestasis, apoptosis”.
Consider `CS(=O)(=O)Nc1ccc([N+](=O)[O-])cc1Oc1ccccc1` [Nimesulide], for which, in the series with SALA model cells (210 μM), the “LDH leakage, time of peak” value is listed as around 5 days.
Consider `O=c1n(CCCN2CCN(c3cccc(Cl)c3)CC2)nc2ccccn12` [Trazodone], for which, in series [1], the Cmax is 5000 nM. For the same compound, in the series on liver [3], the “MOT (wrapped cells)” value is “No known”. Moreover, in the series with liver [4], the “liver injury incidents/million prescriptions” value is reported as 0.21 incidents/million prescriptions and the “Human/Animal Toxicology” value was “extremely rare liver; also recorded: Mild ↑transaminases,”.
As to `Cc1c(C)c2c(c(C)c1O)CCC(C)(COc1ccc(CC3SC(=O)NC3=O)cc1)O2` (stereo not drawn) [Troglitazone], the Cmax in series [1] was 1800 nM. In [5], the “SSMD, Bile canalicular efflux (CMFDA)” value is recorded as 11. For the same compound, the “CMFDA dye uptake and efflux in hepatocytes” value in [6] (10 day treatment, monitored 60 minutes, compared to vehicle) is “slower uptake and inhibition of efflux”. The “hepatocyte retention of dye” value in [6] (at 60 minutes) is “increased hepatocyte retention of dye”. Moreover, in the series on liver [3], the “MOT (wrapped cells)” value is listed as “Mitochondrial; also recorded: BSEP inhibitor”. Also, in the series with liver [4], the “liver injury incidents/million prescriptions” value is recorded as “Up to 1000 incidents/million prescriptions” and the “Human/Animal Toxicology” value is listed as “Moderate to severe; also recorded: Variable necrosis,; also recorded: cholestasis,; also recorded: inflammatory”. Besides, the “release of LDH, time of peak loss” value in the series with SALA model cells (28 μM) is listed as around 13 days. In addition, the “release of LDH, time of peak loss” value with SALA model cells (180 μM) is around 4 days.
Consider `CN(Cc1cnc2nc(N)nc(N)c2n1)c1ccc(C(=O)N[C@@H](CCC(=O)O)C(=O)O)cc1` [methotrexate], for which the “expression of collagen type 1A2 protein in LX-2 stellate cells” value in the series on LX-2 stellate cells (day 21, relative to vehicle control) is on record as “increased”. Also, the “LX-2 stellate cell division, transmigration and accumulation in hepatocyte layer” value in the series with LX-2 stellate cells (over 21 days, compared with vehicle (1.0% DMSO)) is “accelerated rate”.
Take `C[C@]12CC[C@H]3[C@@H](CCC4=CC(=O)CC[C@@]43C)[C@@H]1CC[C@@H]2O` [testosterone]: the “testosterone exits unchanged through the device (ratio of mass area under the curves)” value in series [7] is 27%.
With `N[C@@H]1[C@H]2CN(c3nc4c(cc3F)c(=O)c(C(=O)O)cn4-c3ccc(F)cc3F)C[C@@H]12` [trovafloxacin], the hepatocyte area result in [8] (200 μM trovafloxacin alone, day 7) was “decrease in hepatocyte area”; in series [8] (200 μM trovafloxacin plus 1 ug/ml LPS, day 5) it was “decrease in hepatocyte area”. Besides, the “cell area of hepatocytes” value in series [8] (200 μM trovafloxacin co-treated with 1 ug/ml LPS, compared to vehicle (1% DMSO)) is “reduction in cell area”. The “propidium iodide (PI) uptake” value in [9] was “increased PI uptake”; in series [9] (listed as trovofloxacin), “increase in propidium iodide uptake”.
Consider Lipopolysaccharide [LPS], for which the “EC50 of TNF-alpha release” value in the series with U937 cells came out at 0.7 µg/mL.
